We go through four compounds from ChEMBL document CHEMBL5335832, “Cavomycins A-C, Linear Oligomer Depsipeptides from an Annelid-Associated Streptomyces cavourensis” (J Nat Prod, 2024).

The subject of test [1] is PANC-1. Nature of the test: Antiproliferative activity against human PANC-1 cells assessed as inhibition of cell growth at 20 to 100 uM incubated for 72 hrs by MTT assay. Format: functional, cell-based. The note with it: dose 20-100 µM. On the technique in general: Tetrazolium assays rely on reduction of a dye to a coloured formazan, in cell work by metabolically active cells.

For test [2], the system named is PANC-1. Nature of the test: Antiproliferative activity against human PANC-1 cells assessed as inhibition of cell growth incubated for 72 hrs by MTT assay. Format: functional, cell-based. The note with it: PANC-1, 72 h.

The IC50 is the concentration that inhibits the measured activity by half.

Activity calls are given as the source filed them. The calls are words filed in the database; no cut-off is given here.

Consider `CC(C)[C@H](NC(=O)[C@H](C)OC(=O)[C@H](NC(=O)[C@H](OC(=O)[C@@H](NC(=O)[C@H](C)OC(=O)[C@H](NC(=O)[C@H](OC(=O)[C@@H](NC(=O)[C@H](C)O)C(C)C)C(C)C)C(C)C)C(C)C)C(C)C)C(C)C)C(=O)O`, for which, in the test with PANC-1 [1], the outcome was inactive.

For `COC(=O)[C@H](NC(=O)[C@H](OC(=O)[C@@H](NC(=O)[C@H](C)OC(=O)[C@H](NC(=O)[C@H](OC(=O)[C@@H](NC(=O)[C@H](C)OC(=O)[C@H](NC(=O)[C@H](OC(=O)[C@@H](NC(=O)[C@H](C)O)C(C)C)C(C)C)C(C)C)C(C)C)C(C)C)C(C)C)C(C)C)C(C)C)C(C)C`, in the test with PANC-1 [2], the IC50 was found to be 1700 nM.

On to `CC(C)[C@H](NC(=O)[C@H](C)OC(=O)[C@H](NC(=O)[C@H](OC(=O)[C@@H](NC(=O)[C@H](C)OC(=O)[C@H](NC(=O)[C@H](OC(=O)[C@@H](NC(=O)[C@H](C)OC(=O)[C@@H](NC(=O)[C@H](C)O)C(C)C)C(C)C)C(C)C)C(C)C)C(C)C)C(C)C)C(C)C)C(=O)O`, for which, in the test on PANC-1 [1], the outcome was inactive.

As for `CC(C)[C@H](NC(=O)[C@H](C)O)C(=O)O[C@@H](C(=O)N[C@@H](C(=O)O[C@@H](C)C(=O)N[C@H](C(=O)O[C@@H](C(=O)N[C@@H](C(=O)O[C@@H](C)C(=O)N[C@H](C(=O)O[C@@H](C(=O)N[C@@H](C(=O)O)C(C)C)C(C)C)C(C)C)C(C)C)C(C)C)C(C)C)C(C)C)C(C)C`, the IC50 with PANC-1 [2] came out at 1200 nM.
